Reference: paper PMC10178127, “Immunomodulatory Effects of the Pea Defensin Psd1 in the Caco-2/Immune Cells Co-Culture upon Candida albicans Infection” (International Journal of Molecular Sciences, 2023)

Test system: Caco-2/moDCs co-culture
Assay: Multiplex xMAP cytokine production, Caco-2/dendritic cells co-culture
Format: cell-based, human
Conditions: 24 h; for EGF level / Eotaxin level / FGF-2 level / FLT-3L level / Fractalkine level / G-CSF level / GM-CSF level / GROa level / IFNa2 level / IFNg level / IL-1RA level / IL-1a level / IL-1b level / IL-2 level / IL-3 level / IL-4 level / IL-5 level / IL-6 level / IL-7 level / IL-8 level / IL-9 level / IL-10 level / IL-12 (p40) level / IL-12 (p70) level / IL-13 level / IL-15 level / IL-17A level / IL-17E/IL-25 level / IL-17F level / IL-18 level / IL-22 level / IL-27 level / IP-10 level / M-GSF level / MCP-1 level / MCP-3 level / MDC level / MIG level / MIP-1a level / MIP-1b level / PDGF-AA level / PDGF-AB/BB level / RANTES level / TGF-a level / TNFa level / TNFb level / VEGFa level / sCD40L level: 2 µM apical, basolateral medium
Text: The co-culture model consisted of immune cells (moDCs or monocytes) lying on the bottom of the culture well, and a Caco-2 polarized monolayer, mimicking intestinal epithelium, on a permeable insert. Immune cells were located on the serosal side of the epithelial barrier. In some inserts Candida albicans was loaded to the apical side of the epithelium, mimicking intestinal lumen colonization with this pathogenic fungus. This co-culture model allows yeast cells to contact only with the apical side of epithelial cells, but not with immune cells. Culture medium, containing cytokines, chemokines, and growth factors, produced by both epithelial and immune cells, was taken from basolateral chambers and analyzed by multiplex xMAP technology after incubation during 24 h when C. albicans cells switched to hyphal form.
For growing cells, mimicking epithelial barriers in vitro, Caco-2 cells were seeded onto 24-well polycarbonate Millicell cell culture inserts (0.4 μm, 0.6 cm^2 surface area) (Millipore, Burlington, MA, USA), precoated with 0.2% bovine gelatin (Sigma-Aldrich), at a density of 2.5 × 10^5 cells/cm^2. The cells were grown for 21 days in a complete DMEM/F12 (1:1) medium with re-feeding every 2–3 days with a fresh complete medium. The integrity of the Caco-2 cell monolayer was checked by measuring the transepithelial electrical resistance (TEER) using a Millicell-ERS Voltohmmeter (Millipore). Only cell monolayers with TEER > 400 Ωcm^2 (after subtracting TEER in blank inserts without Caco-2 cells) were used in transport across epithelial monolayer and cytokine production experiments.
Monocytes and moDCs were seeded into the wells of 48- and 24-well plates in the complete RPMI-1640 medium supplemented with 10% human AB serum (HABS, Capricorn Scientific) without antibiotics 24 h prior to the experiment, and kept in a humidified CO2-incubator (5% CO2, 37 °C). After 24 h, the medium in the wells of the 48-well plate was replaced by fresh complete RPMI-1640 medium with 10% HABS, supplemented with 2 µM of Psd1 for the sample wells or fresh medium alone for the control wells. Medium in the wells of the 24-well plate was replaced by fresh complete RPMI-1640 medium with 10% human serum without antibiotics. Then, Millicell inserts with Caco-2 monolayers with TEER > 400 Ωcm^2 were placed into the wells of the 24-well plate, containing monocytes or moDCs. Wells with Millicell inserts with Caco-2 monolayers without immune cells were used as control wells. Medium in apical chambers of Millicell inserts was replaced by fresh complete RPMI-1640 with 10% human serum medium containing Psd1 at the final concentration of 2 µM or Candida albicans at the concentration of 5 × 10^4 cells/mL or yeast cells together with the pea defensin at the same concentration. Fresh complete RPMI-1640 medium only with 10% human serum and without antibiotics was used in control wells. Plates were kept in CO2-incubator (5% CO2, 37 °C) for another 24 h. Culture supernatants from the wells of the 48-well plate and basolateral chambers of the 24-well plate were collected and stored at −70 °C degrees less than one month prior to the analytes assessment. […]

Substance: Psd1: pea defensin from Pisum sativum (UNIPROT P81929), recombinant peptide overexpressed in Escherichia coli (KTCEHLADTYRGVCFTNASCDDHCKNKAHLISGTCHNWKCFCTQNC; UniProt P81929 1-46, looked up)
- production of TNFα, IL-6, IL-8/CXCL8, IL-12, IL-27, G-CSF, GM-CSF, and MIPs induced by C. albicans (Caco-2/dendritic cells co-culture with C. albicans, 2 μM): inhibited the production
- EGF level (Caco-2/moDCs+Candida+Psd1): 4.72 pg/mL
- Eotaxin level (Caco-2/moDCs+Candida+Psd1): <3.52↓ pg/ml
- FGF-2 level (Caco-2/moDCs+Candida+Psd1): 37.17 pg/mL
- FLT-3L level (Caco-2/moDCs+Candida+Psd1): 0.57 pg/mL
- Fractalkine level (Caco-2/moDCs+Candida+Psd1): <17.82↓ pg/ml
- G-CSF level (Caco-2/moDCs+Candida+Psd1): 3.15 pg/mL
- GM-CSF level (Caco-2/moDCs+Candida+Psd1): 1.96 pg/mL
- GROa level (Caco-2/moDCs+Candida+Psd1): 23.25 pg/mL
- IFNa2 level (Caco-2/moDCs+Candida+Psd1): 7.95 pg/mL
- IFNg level (Caco-2/moDCs+Candida+Psd1): <2.23↓ pg/ml
- IL-1RA level (Caco-2/moDCs+Candida+Psd1): 160.3 pg/mL
- IL-1a level (Caco-2/moDCs+Candida+Psd1): 3.72 pg/mL
- IL-1b level (Caco-2/moDCs+Candida+Psd1): <2.26↓ pg/ml
- IL-2 level (Caco-2/moDCs+Candida+Psd1): 1.49 pg/mL
- IL-3 level (Caco-2/moDCs+Candida+Psd1): <0.60↓ pg/ml
- IL-4 level (Caco-2/moDCs+Candida+Psd1): <1.14↓ pg/ml
- IL-5 level (Caco-2/moDCs+Candida+Psd1): 2.95 pg/mL
- IL-6 level (Caco-2/moDCs+Candida+Psd1): 1.46 pg/mL
- IL-7 level (Caco-2/moDCs+Candida+Psd1): <0.38↓ pg/ml
- IL-8 level (Caco-2/moDCs+Candida+Psd1): 107.27 pg/mL
- IL-9 level (Caco-2/moDCs+Candida+Psd1): 4.69 pg/mL
- IL-10 level (Caco-2/moDCs+Candida+Psd1): 17.03 pg/mL
- IL-12 (p40) level (Caco-2/moDCs+Candida+Psd1): 52.85 pg/mL
- IL-12 (p70) level (Caco-2/moDCs+Candida+Psd1): <1.68↓ pg/ml
- IL-13 level (Caco-2/moDCs+Candida+Psd1): 11.06 pg/mL
- IL-15 level (Caco-2/moDCs+Candida+Psd1): 8.46 pg/mL
- IL-17A level (Caco-2/moDCs+Candida+Psd1): <2.09↓ pg/ml
- IL-17E/IL-25 level (Caco-2/moDCs+Candida+Psd1): <18.85↓ pg/ml
- IL-17F level (Caco-2/moDCs+Candida+Psd1): <19.03↓ pg/ml
- IL-18 level (Caco-2/moDCs+Candida+Psd1): 4.94 pg/mL
- IL-22 level (Caco-2/moDCs+Candida+Psd1): <5.23↓ pg/ml
- IL-27 level (Caco-2/moDCs+Candida+Psd1): 49.72 pg/mL
- IP-10 level (Caco-2/moDCs+Candida+Psd1): 334.16 pg/mL
- M-GSF level (Caco-2/moDCs+Candida+Psd1): 123.66 pg/mL
- MCP-1 level (Caco-2/moDCs+Candida+Psd1): 307.65 pg/mL
- MCP-3 level (Caco-2/moDCs+Candida+Psd1): 19.67 pg/mL
- MDC level (Caco-2/moDCs+Candida+Psd1): 2630 pg/mL
- MIG level (Caco-2/moDCs+Candida+Psd1): 38259 pg/mL
- MIP-1a level (Caco-2/moDCs+Candida+Psd1): 16.22 pg/mL
- MIP-1b level (Caco-2/moDCs+Candida+Psd1): 78.16 pg/mL
- PDGF-AA level (Caco-2/moDCs+Candida+Psd1): 256.1 pg/mL
- PDGF-AB/BB level (Caco-2/moDCs+Candida+Psd1): 97.16 pg/mL
- RANTES level (Caco-2/moDCs+Candida+Psd1): <0.62↓ pg/ml
- TGF-a level (Caco-2/moDCs+Candida+Psd1): 35.55 pg/mL
- TNFa level (Caco-2/moDCs+Candida+Psd1): 18.93 pg/mL
- TNFb level (Caco-2/moDCs+Candida+Psd1): 0.97 pg/mL
- VEGFa level (Caco-2/moDCs+Candida+Psd1): 75.3 pg/mL
- sCD40L level (Caco-2/moDCs+Candida+Psd1): 84.71 pg/mL
- EGF level (Caco-2/moDCs+Psd1): 4.72 pg/mL
- Eotaxin level (Caco-2/moDCs+Psd1): <3.52↓ pg/ml
- FGF-2 level (Caco-2/moDCs+Psd1): 45.43 pg/mL
- FLT-3L level (Caco-2/moDCs+Psd1): 0.57 pg/mL
- Fractalkine level (Caco-2/moDCs+Psd1): <17.82↓ pg/ml
- G-CSF level (Caco-2/moDCs+Psd1): 9.1 pg/mL
- GM-CSF level (Caco-2/moDCs+Psd1): 3.93 pg/mL
- GROa level (Caco-2/moDCs+Psd1): 21.95 pg/mL
- IFNa2 level (Caco-2/moDCs+Psd1): 5.69 pg/mL
- IFNg level (Caco-2/moDCs+Psd1): <2.23↓ pg/ml
- IL-1RA level (Caco-2/moDCs+Psd1): 141.59 pg/mL
- IL-1a level (Caco-2/moDCs+Psd1): 4.37 pg/mL
- IL-1b level (Caco-2/moDCs+Psd1): 9.3 pg/mL
- IL-2 level (Caco-2/moDCs+Psd1): 1.57 pg/mL
- IL-3 level (Caco-2/moDCs+Psd1): <0.60↓ pg/ml
- IL-4 level (Caco-2/moDCs+Psd1): <1.14↓ pg/ml
- IL-5 level (Caco-2/moDCs+Psd1): 3.35 pg/mL
- IL-6 level (Caco-2/moDCs+Psd1): 2.41 pg/mL
- IL-7 level (Caco-2/moDCs+Psd1): <0.38↓ pg/ml
- IL-8 level (Caco-2/moDCs+Psd1): 134.16 pg/mL
- IL-9 level (Caco-2/moDCs+Psd1): 3.44 pg/mL
- IL-10 level (Caco-2/moDCs+Psd1): 10.61 pg/mL
- IL-12 (p40) level (Caco-2/moDCs+Psd1): 52.85 pg/mL
- IL-12 (p70) level (Caco-2/moDCs+Psd1): <1.68↓ pg/ml
- IL-13 level (Caco-2/moDCs+Psd1): 16.44 pg/mL
- IL-15 level (Caco-2/moDCs+Psd1): 10.29 pg/mL
- IL-17A level (Caco-2/moDCs+Psd1): <2.09↓ pg/ml
- IL-17E/IL-25 level (Caco-2/moDCs+Psd1): <18.85↓ pg/ml
- IL-17F level (Caco-2/moDCs+Psd1): <19.03↓ pg/ml
- IL-18 level (Caco-2/moDCs+Psd1): 4.84 pg/mL
- IL-22 level (Caco-2/moDCs+Psd1): <5.23↓ pg/ml
- IL-27 level (Caco-2/moDCs+Psd1): 53.57 pg/mL
- IP-10 level (Caco-2/moDCs+Psd1): 330.74 pg/mL
- M-GSF level (Caco-2/moDCs+Psd1): 144.24 pg/mL
- MCP-1 level (Caco-2/moDCs+Psd1): 362.92 pg/mL
- MCP-3 level (Caco-2/moDCs+Psd1): 20.63 pg/mL
- MDC level (Caco-2/moDCs+Psd1): 2562 pg/mL
- MIG level (Caco-2/moDCs+Psd1): 32839 pg/mL
- MIP-1a level (Caco-2/moDCs+Psd1): 20.66 pg/mL
- MIP-1b level (Caco-2/moDCs+Psd1): 85.91 pg/mL
- PDGF-AA level (Caco-2/moDCs+Psd1): 233.14 pg/mL
- PDGF-AB/BB level (Caco-2/moDCs+Psd1): 92.84 pg/mL
- RANTES level (Caco-2/moDCs+Psd1): <0.62↓ pg/ml
- TGF-a level (Caco-2/moDCs+Psd1): 40.15 pg/mL
- TNFa level (Caco-2/moDCs+Psd1): 20.96 pg/mL
- TNFb level (Caco-2/moDCs+Psd1): 1.55 pg/mL
- VEGFa level (Caco-2/moDCs+Psd1): 82.2 pg/mL
- sCD40L level (Caco-2/moDCs+Psd1): 98.67 pg/mL
